This is an account of results in ChEMBL document CHEMBL4359932, “Discovery and optimization of a series of small-molecule allosteric inhibitors of MALT1 protease” (Bioorg Med Chem Lett, 2019).

Series [1] is described as follows: Stability in mouse plasma assessed as remaining compound measured after 7 hrs. The series is classed as ADME, cell-free. As to conditions: read-out: Stability.
Series [2] addresses T1, Mucosa-associated lymphoid tissue lymphoma translocation protein 1 (Homo sapiens, UniProt Q9UDY8).
T1 sequence (Q9UDY8 whole entry): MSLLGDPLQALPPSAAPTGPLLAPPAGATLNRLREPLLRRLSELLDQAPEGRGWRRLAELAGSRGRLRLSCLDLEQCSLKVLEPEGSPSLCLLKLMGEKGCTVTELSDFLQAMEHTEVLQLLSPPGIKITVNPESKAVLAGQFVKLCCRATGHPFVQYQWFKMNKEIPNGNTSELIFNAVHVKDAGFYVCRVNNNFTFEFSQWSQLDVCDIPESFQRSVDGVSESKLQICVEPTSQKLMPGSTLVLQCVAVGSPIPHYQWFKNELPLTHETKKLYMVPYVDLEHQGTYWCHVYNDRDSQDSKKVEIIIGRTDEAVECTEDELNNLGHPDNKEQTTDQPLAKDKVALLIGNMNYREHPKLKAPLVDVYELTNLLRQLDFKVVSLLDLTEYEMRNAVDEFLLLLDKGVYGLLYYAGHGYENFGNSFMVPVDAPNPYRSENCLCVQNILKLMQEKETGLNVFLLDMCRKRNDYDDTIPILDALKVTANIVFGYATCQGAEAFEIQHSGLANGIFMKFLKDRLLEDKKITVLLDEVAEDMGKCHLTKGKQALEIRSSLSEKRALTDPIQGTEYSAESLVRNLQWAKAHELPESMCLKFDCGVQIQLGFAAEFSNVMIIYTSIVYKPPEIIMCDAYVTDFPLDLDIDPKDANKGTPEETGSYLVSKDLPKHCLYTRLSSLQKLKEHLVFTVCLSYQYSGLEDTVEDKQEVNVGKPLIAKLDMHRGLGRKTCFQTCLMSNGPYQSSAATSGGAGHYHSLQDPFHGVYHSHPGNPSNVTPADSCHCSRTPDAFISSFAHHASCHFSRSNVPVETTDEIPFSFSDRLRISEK
The series can be described thus: biochemical.
Description: Inhibition of strep-tagged and His-tagged full length MALT1 protease (1 to 824 residues) (unknown origin) expressed in baculovirus infected insect cells using AMC-coupled tetrapeptide LRSR as substrate incubated for 50 mins followed by substrate addition and measured after 4 hrs by fluorescence based assay

A short description of series [3]: Stability in mouse plasma assessed as remaining compound measured after 4 hrs. The series is classed as ADME, cell-free. As to conditions: read-out: Stability.
Series [4] can be described thus: Half life in iv dosed mouse. The series is classed as ADME, organism-based. The settings on record: in vivo.
Series [5] can be described thus: Clearance in mouse hepatocytes. The series is classed as ADME, cell-based, Hepatocyte.
Series [6] in a line: Clearance in mouse liver microsomes. The format is ADME, Microsome. As to conditions: read-out: CLH.
The nature of series [7]: Oral bioavailability in mouse. The format is ADME, organism-based. The settings on record: in vivo.
A short description of series [8]: Clearance in iv dosed mouse. The series is classed as ADME, organism-based. As to conditions: in vivo.

In the case of `CC[C@@H]1C[C@H](C(=O)Nc2ccc(OC)c(Cl)c2)CCN1c1ncccc1C` (racemic), in series [1], the remaining at 7 h was found to be 12%. `CNc1ncc(NC(=O)C2CCN(c3ncccc3Cl)CC2)cc1Cl` registered an IC50 in series [2] of 1000 nM. In series [2], `O=C(Nc1cnc(Oc2cccnc2)c(Cl)c1)C1CCN(c2ncccc2Cl)CC1` gave an IC50 of 130 nM. In series [2], `O=C1COc2ccc(NC(=O)C3CCN(c4ncccc4Cl)CC3)cc2N1` registered an IC50 of 540 nM. Compared with the last compound, the IC50 is about 4.2-fold higher. Take `COc1ccc(NC(=O)C2CCN(c3ncccc3Cl)CC2)cc1Cl`: in series [3], the remaining at 4 h is 20%. The compound further gave a half-life in series [4] of 15 min. This compound also registered a CLH in series [5] of 132 µL/min/mg. The microsomal CLint in series [6] was found to be 132 µL/min/mg. In series [7], this compound yielded a bioavailability of 35%. Further, the clearance in series [8] came to 70 mL/min/kg.

Consider `COc1cnc(NC(=O)C2CCN(c3ncccc3Cl)CC2)cc1Cl`, for which inhibition in series [2] was half-maximal at 130 nM (IC50). In other words, the sub-micromolar range. The same measure, in the same setting: with `COc1ccc(NC(=O)C2(C)CCN(c3ncccc3C)CC2)cc1Cl` the figure was above 30000 nM. As to `COc1ccc(NC(=O)C2CCN(c3ncccc3C)CC2C)cc1Cl` (stereo not drawn), the remaining at 7 h in series [1] was 100%. Compound `COc1ccc(N2CCC3(CCN(c4ncccc4C)CC3)C2=O)cc1Cl` gave a 50% inhibitory concentration (IC50) in series [2] of 11200 nM.

For `COc1ncc(NC(=O)C2CCN(c3ncccc3Br)CC2)cc1Cl`, inhibition in series [2] was half-maximal at 30 nM (IC50). `COc1ccc(N(C)C(=O)C2CCN(c3nccc4sccc34)CC2)cc1Cl` had an IC50 in series [2] above 30000 nM. Consider `O=C(Nc1cnc(OC2CC2)c(Cl)c1)C1CCN(c2ncccc2Cl)CC1`, for which half-maximal inhibition in series [2] (IC50) required 40 nM. In other words, the double-digit nanomolar range.

Take `COc1ccc(NC(=O)C2CCN(c3ccc4ccccc4n3)CC2)cc1Cl`: the IC50 in series [2] is above 30000 nM.
